From ChEMBL document CHEMBL1150267, “Synthesis and screening of mono- and di-aryl technetium and rhenium metallocarboranes. A new class of probes for the estrogen receptor” (J Med Chem, 2008)

Test: physchem
Conditions: octanol/water
Description: Lipophilicity, log P of the compound

SMILES: c1ccc(Oc2ccccc2)cc1
- logP: 4.2
